Test results from patent publication US9499495B2, “Quinazolines and azaquinazolines as dual inhibitors of RAS/RAF/MEK/ERK and PI3K/AKT/PTEN/mTOR pathways” (Asana Biosciences, LLC, priority 2013, dated 2016).
pIC50: −log10 of the molar value.

Legend:
Type in all cases: biochemical
B-RAFV600E = target: T1, B-RAFV600E (Homo sapiens, UniProt P15056, V600E); assay: B-RAFV600E radiometric assay; conditions: read-out: Kinase assay B-Raf
T1 construct: purchased Millipore, USA 14-557
In short: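 B-RAFV600E was preincubated 45 min at rt with compound in 1% DMSO. MEK-K97M (0.5 μg), 5 μM final cold ATP and [γ-32P]ATP were then added for 2 h at rt. Phosphorylated MEK was captured on P81 paper and scintillation-counted; IC50 came from a sigmoidal dose-response fit.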

PI3Kα = target: T2, PI3Kα (Homo sapiens, UniProt P42336); assay: PI3 Kinase alpha TR-FRET assay
T2 construct: made in house; host or cells: SF9 cells
T2 sequence (P42336 whole entry, species assumed): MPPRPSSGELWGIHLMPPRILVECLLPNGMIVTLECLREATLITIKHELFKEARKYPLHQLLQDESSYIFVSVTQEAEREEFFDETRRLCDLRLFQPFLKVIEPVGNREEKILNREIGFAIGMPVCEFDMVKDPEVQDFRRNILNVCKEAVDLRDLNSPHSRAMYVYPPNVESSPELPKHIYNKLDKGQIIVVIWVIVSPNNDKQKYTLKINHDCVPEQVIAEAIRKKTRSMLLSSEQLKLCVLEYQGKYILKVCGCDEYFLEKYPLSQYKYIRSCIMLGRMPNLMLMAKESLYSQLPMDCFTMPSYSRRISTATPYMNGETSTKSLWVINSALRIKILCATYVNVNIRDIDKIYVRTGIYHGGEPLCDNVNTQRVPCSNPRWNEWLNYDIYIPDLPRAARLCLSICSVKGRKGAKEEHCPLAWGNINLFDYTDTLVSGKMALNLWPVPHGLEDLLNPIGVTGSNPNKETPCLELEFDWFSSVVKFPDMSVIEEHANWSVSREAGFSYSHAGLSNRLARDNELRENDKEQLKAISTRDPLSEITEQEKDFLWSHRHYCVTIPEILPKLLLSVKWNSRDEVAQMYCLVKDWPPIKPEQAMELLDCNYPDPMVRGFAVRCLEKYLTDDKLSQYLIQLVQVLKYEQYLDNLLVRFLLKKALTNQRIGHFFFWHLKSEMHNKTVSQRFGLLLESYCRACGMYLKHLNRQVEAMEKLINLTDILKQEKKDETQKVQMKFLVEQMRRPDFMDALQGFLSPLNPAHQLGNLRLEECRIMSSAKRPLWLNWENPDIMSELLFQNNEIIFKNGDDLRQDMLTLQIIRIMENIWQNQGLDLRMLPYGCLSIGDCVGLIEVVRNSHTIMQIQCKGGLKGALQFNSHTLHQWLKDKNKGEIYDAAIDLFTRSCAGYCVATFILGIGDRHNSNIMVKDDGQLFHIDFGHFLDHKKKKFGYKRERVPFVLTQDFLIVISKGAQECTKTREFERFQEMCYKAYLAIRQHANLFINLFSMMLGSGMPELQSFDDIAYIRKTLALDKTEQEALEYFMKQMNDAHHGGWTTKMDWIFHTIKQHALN
T2 sequence (P27986 whole entry partner, species assumed): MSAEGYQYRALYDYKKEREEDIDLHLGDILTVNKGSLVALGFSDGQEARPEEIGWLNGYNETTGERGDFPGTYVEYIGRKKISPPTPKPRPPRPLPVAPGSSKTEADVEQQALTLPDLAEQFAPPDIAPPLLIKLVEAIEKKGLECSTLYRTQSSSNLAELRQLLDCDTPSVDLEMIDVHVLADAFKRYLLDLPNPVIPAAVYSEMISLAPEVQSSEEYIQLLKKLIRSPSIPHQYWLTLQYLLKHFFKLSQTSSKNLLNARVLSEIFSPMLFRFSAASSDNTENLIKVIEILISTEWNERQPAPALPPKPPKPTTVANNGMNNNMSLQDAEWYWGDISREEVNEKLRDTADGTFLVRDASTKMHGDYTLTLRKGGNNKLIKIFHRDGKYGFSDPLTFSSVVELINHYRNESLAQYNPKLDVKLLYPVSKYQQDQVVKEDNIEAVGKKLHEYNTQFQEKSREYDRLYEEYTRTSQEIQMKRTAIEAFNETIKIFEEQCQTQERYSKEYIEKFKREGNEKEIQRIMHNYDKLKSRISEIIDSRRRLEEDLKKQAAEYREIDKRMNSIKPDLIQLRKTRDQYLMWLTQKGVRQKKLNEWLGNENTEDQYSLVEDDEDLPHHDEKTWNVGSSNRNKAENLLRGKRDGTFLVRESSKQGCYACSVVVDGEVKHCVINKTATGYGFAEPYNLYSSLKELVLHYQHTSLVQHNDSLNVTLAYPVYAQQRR
In short: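 Purified Sf9-expressed p110/p85α (5 ng) was pre-incubated with compound and PIP2 at rt, then ATP was added (PIP2 and ATP both 40 μM) for a 30 min reaction. PIP3 was detected by TR-FRET displacement of biotin-PIP3, and IC50 was taken from dose-response curves of the 665/615 nm emission ratio.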

mTOR kinase = target: T3, mTOR kinase (Homo sapiens, UniProt P42345); assay: mTOR kinase TR-FRET assay
T3 construct: purchased Millipore, US
T3 sequence (P42345 1362-2549 limits assumed): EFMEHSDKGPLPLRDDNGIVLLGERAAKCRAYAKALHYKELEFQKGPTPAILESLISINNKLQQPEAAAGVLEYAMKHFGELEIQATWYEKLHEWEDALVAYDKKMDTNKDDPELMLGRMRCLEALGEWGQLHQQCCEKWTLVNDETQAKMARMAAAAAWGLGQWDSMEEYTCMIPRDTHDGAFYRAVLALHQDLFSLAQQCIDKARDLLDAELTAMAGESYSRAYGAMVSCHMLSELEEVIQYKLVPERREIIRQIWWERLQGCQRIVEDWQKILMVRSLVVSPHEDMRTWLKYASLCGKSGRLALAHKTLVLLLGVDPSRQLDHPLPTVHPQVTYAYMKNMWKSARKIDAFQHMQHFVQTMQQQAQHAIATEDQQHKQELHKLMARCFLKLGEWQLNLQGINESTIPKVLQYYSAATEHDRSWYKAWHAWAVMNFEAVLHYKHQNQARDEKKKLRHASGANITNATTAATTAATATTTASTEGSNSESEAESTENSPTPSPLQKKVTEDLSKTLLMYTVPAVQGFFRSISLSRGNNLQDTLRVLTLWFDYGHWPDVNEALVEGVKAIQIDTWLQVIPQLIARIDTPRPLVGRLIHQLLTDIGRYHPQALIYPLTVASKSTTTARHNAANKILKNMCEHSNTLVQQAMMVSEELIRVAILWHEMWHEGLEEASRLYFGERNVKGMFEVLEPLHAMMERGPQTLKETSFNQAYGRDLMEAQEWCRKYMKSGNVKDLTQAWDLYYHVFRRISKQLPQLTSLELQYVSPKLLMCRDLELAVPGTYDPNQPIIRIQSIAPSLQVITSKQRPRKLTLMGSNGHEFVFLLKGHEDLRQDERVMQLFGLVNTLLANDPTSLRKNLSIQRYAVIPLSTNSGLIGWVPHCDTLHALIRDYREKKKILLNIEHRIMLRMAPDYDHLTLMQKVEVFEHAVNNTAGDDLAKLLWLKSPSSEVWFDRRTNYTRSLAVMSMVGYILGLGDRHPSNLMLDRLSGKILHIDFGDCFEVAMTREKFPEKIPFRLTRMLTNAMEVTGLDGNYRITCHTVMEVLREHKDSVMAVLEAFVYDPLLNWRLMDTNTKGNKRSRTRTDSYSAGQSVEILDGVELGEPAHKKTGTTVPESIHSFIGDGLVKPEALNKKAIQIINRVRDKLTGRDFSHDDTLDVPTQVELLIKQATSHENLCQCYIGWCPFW
In short: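 TR-FRET with ULight-p70 S6K (Thr 389) peptide (50 nM) and 20 μM ATP in 50 mM HEPES pH 7.5, 1 mM EGTA, 3 mM MnCl2; compound pre-incubated with enzyme before substrate addition, reaction at rt, EDTA-stopped. Eu anti-phospho antibody read 665/615 nm; IC50 from sigmoidal dose-response fit.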

T1 sequence (P15056 416-766 V600E limits assumed): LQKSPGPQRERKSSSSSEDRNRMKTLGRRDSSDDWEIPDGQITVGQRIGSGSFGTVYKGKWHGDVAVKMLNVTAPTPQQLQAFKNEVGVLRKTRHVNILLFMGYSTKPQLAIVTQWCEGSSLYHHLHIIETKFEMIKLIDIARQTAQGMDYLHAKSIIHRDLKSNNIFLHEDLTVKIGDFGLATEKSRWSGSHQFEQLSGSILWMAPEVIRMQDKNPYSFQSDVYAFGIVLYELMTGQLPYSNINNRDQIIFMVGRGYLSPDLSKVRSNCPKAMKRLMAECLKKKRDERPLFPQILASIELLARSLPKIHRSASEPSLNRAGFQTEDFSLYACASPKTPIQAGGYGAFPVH

A pIC50 (B-RAFV600E) of 6.00 to 7.00, a pIC50 (PI3Kα) of 7.00 to 9.00 and a pIC50 (mTOR kinase) of 6.00 to 7.00 were found for `CCCS(=O)(=O)Nc1cccc(-c2ccc3nc(-c4cnc(N)nc4)nc(N4CCOCC4)c3n2)c1F` [Example 7, N-(3-(2-(2-aminopyrimidin-5-yl)-4-morpholinopyrido[3,2-d]pyrimidin-6-yl)-2-fluorophenyl)propane-1-sulfonamide] in this work.
A pIC50 (B-RAFV600E) of 7.00 to 9.00, a pIC50 (PI3Kα) of 6.00 to 7.00 and a pIC50 (mTOR kinase) of 7.00 to 9.00 were found for `COc1cc2nc(-c3cnc(N)nc3)nc(N3CCOCC3)c2cc1-c1cccc(NS(=O)(=O)CCCF)c1F` [Example 11, N-(3-(2-(2-aminopyrimidin-5-yl)-7-methoxy-4-morpholinoquinazolin-6-yl)-2-fluorophenyl)-3-fluoropropane-1-sulfonamide] in this work.
A pIC50 (B-RAFV600E) of 7.00 to 9.00, a pIC50 (PI3Kα) of 6.00 to 7.00 and a pIC50 (mTOR kinase) of 7.00 to 9.00 were found for `CNC(=O)Nc1ccc(-c2nc(N3CCOCC3)c3cc(-c4cccc(NS(=O)(=O)CCCF)c4F)cc(OC)c3n2)cn1` [Example 39, 3-fluoro-N-(2-fluoro-3-(8-methoxy-2-(6-(3-methylureido)pyridin-3-yl)-4-morpholinoquinazolin-6-yl)phenyl)propane-1-sulfonamide] in this work.
A pIC50 (B-RAFV600E) of 7.00 to 9.00, a pIC50 (PI3Kα) of 6.00 to 7.00 and a pIC50 (mTOR kinase) of 7.00 to 9.00 were found for `COc1cc(-c2cccc(NS(=O)(=O)CCCF)c2F)cc2c(N3CCOC[C@H]3C)nc(-c3cnc(N)nc3)nc12` [Example 43, (R)-N-(3-(2-(2-aminopyrimidin-5-yl)-8-methoxy-4-(3-methylmorpholino)quinazolin-6-yl)-2-fluorophenyl)-3-fluoropropane-1-sulfonamide] in this work.
A pIC50 (B-RAFV600E) of 7.00 to 9.00, a pIC50 (PI3Kα) of 6.00 to 7.00 and a pIC50 (mTOR kinase) of 7.00 to 9.00 were found for `Nc1ncc(-c2nc(N3CCOCC3)c3cc(-c4cccc(NS(=O)(=O)CCCF)c4F)cc(N4CCOCC4)c3n2)cn1` [Example 69, N-(3-(2-(2-aminopyrimidin-5-yl)-4,8-dimorpholinoquinazolin-6-yl)-2-fluorophenyl)-3-fluoropropane-1-sulfonamide] in this work.
A pIC50 (B-RAFV600E) of 7.00 to 9.00, a pIC50 (PI3Kα) of 6.00 to 7.00 and a pIC50 (mTOR kinase) of 7.00 to 9.00 were found for `COc1cc(-c2c(F)ccc(NS(=O)(=O)CCCF)c2F)cc2c(N3CCOCC3)nc(-c3ccc(N)nc3)nc12` [Example 79, N-(3-(2-(6-aminopyridin-3-yl)-8-methoxy-4-morpholinoquinazolin-6-yl)-2,4-difluorophenyl)-3-fluoropropane-1-sulfonamide] in this work.
A pIC50 (B-RAFV600E) of 6.00 to 7.00, a pIC50 (PI3Kα) of 7.00 to 9.00 and a pIC50 (mTOR kinase) of 7.00 to 9.00 were found for `CCCS(=O)(=O)Nc1cccc(-c2ccc3nc(-c4ccc(N)nc4)nc(N4CCOCC4)c3n2)c1F` [Example 86, N-(3-(2-(6-aminopyridin-3-yl)-4-morpholinopyrido[3,2-d]pyrimidin-6-yl)-2-fluorophenyl)propane-1-sulfonamide] in this work.
A pIC50 (B-RAFV600E) of 7.00 to 9.00, a pIC50 (PI3Kα) of 7.00 to 9.00 and a pIC50 (mTOR kinase) of 7.00 to 9.00 were found for `Nc1ncc(-c2nc(N3CCOCC3)c3nc(-c4cccc(NS(=O)(=O)CCCF)c4F)ccc3n2)cn1` [Example 87, N-(3-(2-(2-aminopyrimidin-5-yl)-4-morpholinopyrido[3,2-d]pyrimidin-6-yl)-2-fluorophenyl)-3-fluoropropane-1-sulfonamide] in this work.
A pIC50 (B-RAFV600E) of 7.00 to 9.00, a pIC50 (PI3Kα) of 7.00 to 9.00 and a pIC50 (mTOR kinase) of 7.00 to 9.00 were found for `Nc1ccc(-c2nc(N3CCOCC3)c3nc(-c4cccc(NS(=O)(=O)CCCF)c4F)ccc3n2)cn1` [Example 88, N-(3-(2-(6-aminopyridin-3-yl)-4-morpholinopyrido[3,2-d]pyrimidin-6-yl)-2-fluorophenyl)-3-fluoropropane-1-sulfonamide] in this work.
A pIC50 (B-RAFV600E) of 7.00 to 9.00, a pIC50 (PI3Kα) of 6.00 to 7.00 and a pIC50 (mTOR kinase) of 6.00 to 7.00 were found for `Cc1cc(-c2nc(N3CCOCC3)c3nc(-c4cccc(NS(=O)(=O)CCCF)c4F)ccc3n2)cnc1N` [Example 90, N-(3-(2-(6-amino-5-methylpyridin-3-yl)-4-morpholinopyrido[3,2-d]pyrimidin-6-yl)-2-fluorophenyl)-3-fluoropropane-1-sulfonamide] in this work.
A pIC50 (B-RAFV600E) of 7.00 to 9.00, a pIC50 (PI3Kα) of 7.00 to 9.00 and a pIC50 (mTOR kinase) of 6.00 to 7.00 were found for `Nc1ccc(-c2nc(N3CCOCC3)c3nc(-c4cccc(NS(=O)(=O)c5cc(F)ccc5F)c4F)ccc3n2)cn1` [Example 92, N-(3-(2-(6-aminopyridin-3-yl)-4-morpholinopyrido[3,2-d]pyrimidin-6-yl)-2-fluorophenyl)-2,5-difluorobenzenesulfonamide] in this work.
A pIC50 (B-RAFV600E) of 7.00 to 9.00, a pIC50 (PI3Kα) of 7.00 to 9.00 and a pIC50 (mTOR kinase) of 6.00 to 7.00 were found for `Nc1ncc(-c2nc(N3CCOCC3)c3nc(-c4cccc(NS(=O)(=O)c5cc(F)ccc5F)c4F)ccc3n2)cn1` [Example 93, N-(3-(2-(2-aminopyrimidin 5-yl)-4-morpholinopyrido[3,2-d]pyrimidin-6-yl)-2-fluorophenyl)-2,5-difluorobenzenesulfonamide] in this work.
A pIC50 (B-RAFV600E) of 7.00 to 9.00, a pIC50 (PI3Kα) of 7.00 to 9.00 and a pIC50 (mTOR kinase) of 7.00 to 9.00 were found for `Nc1cc(C(F)(F)F)c(-c2nc(N3CCOCC3)c3nc(-c4cccc(NS(=O)(=O)CCCF)c4F)ccc3n2)cn1` [Example 94, N-(3-(2-(6-amino-4-(trifluoromethyl)pyridin-3-yl)-4-morpholinopyrido[3,2-d]pyrimidin-6-yl)-2-fluorophenyl)-3-fluoropropane-1-sulfonamide] in this work.
A pIC50 (B-RAFV600E) of 7.00 to 9.00, a pIC50 (PI3Kα) of 6.00 to 7.00 and a pIC50 (mTOR kinase) of 7.00 to 9.00 were found for `Nc1ccc(-c2nc(N3CCOCC3)c3nc(-c4cccc(NS(=O)(=O)c5c(F)cccc5F)c4F)ccc3n2)cn1` [Example 95, N-(3-(2-(6-aminopyridin-3-yl)-4-morpholinopyrido[3,2-d]pyrimidin-6-yl)-2-fluorophenyl)-2,6-difluorobenzenesulfonamide] in this work.
A pIC50 (B-RAFV600E) of 7.00 to 9.00, a pIC50 (PI3Kα) of 6.00 to 7.00 and a pIC50 (mTOR kinase) of 6.00 to 7.00 were found for `C[C@@H]1COCCN1c1nc(-c2ccc(N)nc2)nc2ccc(-c3cccc(NS(=O)(=O)CCCF)c3F)nc12` [Example 96, (R)-N-(3-(2-(6-aminopyridin-3-yl)-4-(3-methylmorpholino)pyrido[3,2-d]pyrimidin-6-yl)-2-fluorophenyl)-3-fluoropropane-1-sulfonamide] in this work.
A pIC50 (B-RAFV600E) of 7.00 to 9.00, a pIC50 (PI3Kα) of 7.00 to 9.00 and a pIC50 (mTOR kinase) of 6.00 to 7.00 were found for `C[C@@H]1COCCN1c1nc(-c2cnc(N)nc2)nc2ccc(-c3cccc(NS(=O)(=O)CCCF)c3F)nc12` [Example 97, (R)-N-(3-(2-(2-aminopyrimidin-5-yl)-4-(3-methylmorpholino)pyrido[3,2-d]pyrimidin-6-yl)-2-fluorophenyl)-3-fluoropropane-1-sulfonamide] in this work.
A pIC50 (B-RAFV600E) of 7.00 to 9.00, a pIC50 (PI3Kα) of 6.00 to 7.00 and a pIC50 (mTOR kinase) of 7.00 to 9.00 were found for `O=S(=O)(CCCF)Nc1cccc(-c2ccc3nc(-c4ccc(NCCO)nc4)nc(N4CCOCC4)c3n2)c1F` [Example 99, 3-fluoro-N-(2-fluoro-3-(2-(6-((2-hydroxyethyl)amino)pyridin-3-yl)-4-morpholinopyrido[3,2-d]pyrimidin-6-yl)phenyl)propane-1-sulfonamide] in this work.
A pIC50 (B-RAFV600E) of 7.00 to 9.00, a pIC50 (PI3Kα) of 7.00 to 9.00 and a pIC50 (mTOR kinase) of 6.00 to 7.00 were found for `Cc1cc(N)ncc1-c1nc(N2CCOCC2)c2nc(-c3cccc(NS(=O)(=O)CCCF)c3F)ccc2n1` [Example 101, N-(3-(2-(6-amino-4-methylpyrtdin-3-yl)-4-morpholinopyrldo[3,2-d]pyrimidin-6-yl)-2-fluorophenyl)-3-fluoropropane-1-sulfonamide] in this work.
A pIC50 (B-RAFV600E) of 7.00 to 9.00, a pIC50 (PI3Kα) of 7.00 to 9.00 and a pIC50 (mTOR kinase) of 7.00 to 9.00 were found for `Nc1cc(F)c(-c2nc(N3CCOCC3)c3nc(-c4cccc(NS(=O)(=O)CCCF)c4F)ccc3n2)cn1` [Example 102, N-(3-(2-(6-amino-4-fluoropyridin-3-yl)-4-morpholinopyrido[3,2-d]pyrimidin-6-yl)-2-fluorophenyl)-3-fluoropropane-1-sulfonamide] in this work.
A pIC50 (B-RAFV600E) of 7.00 to 9.00, a pIC50 (PI3Kα) of 7.00 to 9.00 and a pIC50 (mTOR kinase) of 7.00 to 9.00 were found for `Nc1cc(C(F)(F)F)c(-c2nc(N3CCOCC3)c3nc(-c4cccc(NS(=O)(=O)c5c(F)cccc5F)c4F)ccc3n2)cn1` [Example 106, N-(3-(2-(6-amino-4-(trifluoromethyl)pyridin-3-yl)-4-morpholinopyrido[3,2-d]pyrimidin-6-yl)-2-fluorophenyl)-2,6-difluorobenzenesulfonamide] in this work.
A pIC50 (B-RAFV600E) of 7.00 to 9.00, a pIC50 (PI3Kα) of 7.00 to 9.00 and a pIC50 (mTOR kinase) of 6.00 to 7.00 were found for `C[C@H]1COCCN1c1nc(-c2cnc(N)cc2C(F)(F)F)nc2ccc(-c3cccc(NS(=O)(=O)CCCF)c3F)nc12` [Example 108, (S)-N-(3-(2-(6-amino-4-(trifluoromethyl)pyrldin-3-yl)-4-(3-methylmorpholino)pyrido[3,2-d]pyrimidin-6-yl)-2-fluorophenyl)-3-fluoropropane-1-sulfonamide] in this work.
A pIC50 (B-RAFV600E) of 7.00 to 9.00, a pIC50 (PI3Kα) of 6.00 to 7.00 and a pIC50 (mTOR kinase) of 7.00 to 9.00 were found for `O=S(=O)(CCCF)Nc1cccc(-c2ccc3nc(-c4ccc(NCCCO)nc4)nc(N4CCOCC4)c3n2)c1F` [Example 111, 3-fluoro-N-(2-fluoro-3-(2-(6-((3-hydroxypropyl)amino)pyridin-3-yl)-4-morpholinopyrido[3,2-d]pyrimidin-6-yl)phenyl)propane-1-sulfonamide] in this work.
A pIC50 (B-RAFV600E) of 7.00 to 9.00, a pIC50 (PI3Kα) of 7.00 to 9.00 and a pIC50 (mTOR kinase) of 7.00 to 9.00 were found for `CNc1ccc(-c2nc(N3CCOCC3)c3nc(-c4cccc(NS(=O)(=O)CCCF)c4F)ccc3n2)cn1` [Example 113, 3-fluoro-N-(2-fluoro-3-(2-(6-(methylamino)pyridin-3-yl)-4-morpholinopyrido[3,2-d]pyrimidin-6-yl)phenyl)propane-1-sulfonamide] in this work.
A pIC50 (B-RAFV600E) of 7.00 to 9.00, a pIC50 (PI3Kα) of 6.00 to 7.00 and a pIC50 (mTOR kinase) of 6.00 to 7.00 were found for `Cc1cc(-c2cccc(NS(=O)(=O)CCCF)c2F)cc2c(N3CCOCC3)nc(-c3cnc(N)nc3)nc12` [Example 116, N-(3-(2-(2-aminopyrimidin-5-yl)-8-methyl-4-morpholinoquinazolin-6-yl)-2-fluorophenyl)-3-fluoropropane-1-sulfonamide] in this work.
